Test results published in patent US7037682B2, “In vitro activity assay for human hepatitis B virus (HBV) DNA polymerase, and its use for screening for inhibitors of HBV DNA polymerase” (Government of the Republic of Singapore, priority 1999, dated 2006).
Entries after “also recorded” stand apart in the source; their conditions may differ.

Test system: wild type human HBV DNA polymerase
Test: In vitro priming activity assay of human HBV DNA polymerase (anti-priming testing, nitrocellulose membrane filtration)
Type: biochemical, human hepatitis B virus (HBV)
Details: in vitro translated wild type enzyme in wheat germ lysate; [α-32P] dTTP; corresponding nucleotide replaced with the analog; 30° C. for 30 min; FIG. 6
Experimental: Unless otherwise noted, the polymerase activity assay was conducted in solution containing 100 mM Tris HCl (pH 7.5), 10 mM MgCl2, 30 mM NaCl, 10% glycerol, 4 mM dithiothreitol, 100 μM of each unlabeled deoxyribonucleotide triphosphates (dATP, dCTP and dGTP) and 5 μCi [α-^32P] dTTP. The reactions were incubated at 30° C. for 30 min, after which time a 5 μl aliquot was added to 85 μl of tricine sodium dodecyl sulfate-polyacrylamide gel electrophoresis (SDS-PAGE) sample buffer (Novex, U.S.A.), and 10 μl were analyzed on 10% SDS-PAGE. Following electrophoresis, gels were fixed by soaking in 10% methanol plus 10% acetic acid and dried under vacuum. Dried gels were exposed to X-ray film and signals quantified by laser densitometry.
Screening for inhibitors of human HBV DNA polymerase would provide novel therapeutic agents for HBV infection, as effective inhibition of the polymerase activity will lead to inhibition of HBV viral replication. The simplified activity assay reported in the present invention would allow faster analysis of the inhibitory effects of newly found molecules on DNA polymerase of variant HBV carrying mutations on the major surface antigen. Briefly, a candidate inhibitor was first incubated with the wild type human HBV DNA polymerase that was PCR amplified and in vitro translated as reported in the present invention. The incubation was in the presence of [α-^32P] dTTP and with other conditions identical as above-mentioned. Its inhibitory effect may be determined either by laser densitometry following SDS-PAGE analysis, or by measuring the amount of radiolabeled HBV DNA polymerase bound to nitrocellulose membrane after filtration. […] Further assay on the potential inhibitory effect derived from the above-mentioned assay may then be extended to other systems such as HBV-producing cell lines and transgenic animal model.
Depending on the type of label used, detection of the labeled hybrid HBV DNA polymerase product may be achieved by any appropriate means. Generally this may include a step of separating labeled mononucleotide from labeled human HBV DNA polymerase. […] When the label is a radiolabel as is the case in the simplified assay reported in the present invention, then the amount of radioactivity bound to the filter may be quantified using a plate reading scintillation counter.
In the present invention, the following nucleotide analogs capable of inhibiting the HBV DNA polymerase activity may be assayed for their anti-priming activity. […] The remaining radiolabeled human HBV DNA polymerase bound to the nitrocellulose membrane is then measured quantified using a plate reading scintillation counter.

| Compound | anti-priming effect (radiolabeled human HBV DNA polymerase remained on nitrocellulose membrane, as measured by cpm, compared with the control) |
| --- | --- |
| Nc1ccn([C@H]2CC[C@@H](COP(=O)(O)OP(=O)(O)OP(=O)(O)O)O2)c(=O)n1 [ddCTP] | inhibitory effect is observed; also recorded: significantly lower amount |
| Nc1ncnc2c1ncn2[C@H]1CC[C@@H](COP(=O)(O)OP(=O)(O)OP(=O)(O)O)O1 [ddATP] | no obvious anti-priming effect; also recorded: no anti-priming activity is observed |
| Cc1cn([C@H]2CC[C@@H](COP(=O)(O)OP(=O)(O)OP(=O)(O)O)O2)c(=O)[nH]c1=O [ddTTP] | no obvious anti-priming effect; also recorded: no anti-priming activity is observed |
| Nc1nc2c(ncn2[C@H]2CC[C@@H](COP(=O)(O)OP(=O)(O)OP(=O)(O)O)O2)c(=O)[nH]1 [ddGTP] | inhibitory effect is observed; also recorded: significantly lower amount |
